Experimental findings from patent US12250946B2, “Antifungal composition having excellent antifungal activity even at low temperature” (Korea University Research and Business Foundation, priority 2020, dated 2025) are described below.

Molecules are shown by their SMILES.

The experiment concerns Candida albicans biofilms. The experiment in a line: Biofilm inhibitory activity by confocal laser scanning microscopy (SYTO 9 / PI staining). Format: cell-based. The conditions noted are these: 5 minutes treatment, 1.2 mM each component. How it is done: Candida albicans biofilms were formed on a stainless-steel coupon. Specifically, the […] were immersed in 90% (v/v) ethanol for 30 minutes for decontamination of stainless-steel coupons (1.5×1.0 cm2) and washed with sterile distilled water. Then, stainless-steel coupons were placed in a 12-well tissue culture plate containing 4.95 mL of SDB enrichment medium, and 50 uL of the mixed suspensions of albicans were dispensed and cultured at 30° C. for 48 hours to form Candida albicans biofilms. After forming the biofilm on each coupon, weakly attached cells, not the biofilm, were separated using 0.85% sterile physiological saline.
The antifungal activity of the antimicrobial mixture of the present disclosure was confirmed through confocal laser scanning microscopy analysis. For the biofilms of Candida species treated with each antimicrobial mixture, intact cells were stained with green fluorescent SYTO®9 (S-34854, Molecular Probes™, Thermo Fisher Scientific Inc., Pittsburgh, PA, USA; final concentration: 6.7 μM; excitation: 488 nm, emission: 498/501 nm), and damaged cells were detected by staining with red fluorescent propidium iodide (PI; P3566, Molecular Probes™; final concentration: 15 μM; excitation: 555 nm, emission: 617 nm). […]

For the molecule `CC(O)CO` (centres unmarked) [compound 2, propylene glycol], the “damage to the fungal cell membrane in the biofilms (SYTO 9 green / PI red fluorescence)” value by setting is: (5° C., FIGS. 4A-4F) “did not show significant damage to the fungal cell membrane”; (22° C., FIGS. 5A-5F) “did not show significant damage to the fungal cell membrane”.
